Results taken from patent US12234237B2, “Folate salts” (priority 2018, dated 2025).

Experiment: Solubility of the folate salt in organic (apolar) solvents at 20° C.
Details: based on total weight of the solution
Protocol: Solubility has been determined at 20° C. Apolar solvents or mixtures thereof are for instance glycerol, methanol, ethanol, 1-propanol, 2-propanol and dimethylsulfoxid (DMSO). Apolar solvents are understood as dry solvents, that is without any water content. Apolar solvents may be pure solvents, comprising only one type of apolar solvent or it may be a mixture of at least two of the aforementioned apolar solvents. Polarity is in comparison to the polarity of water.
A high degree of crystallinity means that the crystalline content of the folate salt is higher than 40% based on the total amount of the folate salt.

**Q.** With CC(C)(N)CO.CC(C)(N)CO.CN1c2c(nc(N)[nH]c2=O)NC[C@@H]1CNc1ccc(C(=O)N[C@@H](CCC(=O)O)C(=O)O)cc1 [L-MTHF di AMP, 5-Methyl-(6S)-tetrahydrofolic acid di 2-Amino-2-methyl propanol salt] as the compound, how does the “Solubility in 1-Propanol” value read?
**A.** 0.1 % w/w

**Q.** And the “Solubility in DMSO” value?
**A.** 23.1 % w/w

**Q.** And the “Solubility in Ethanol” value?
**A.** 0.1 % w/w

**Q.** And the “Solubility in Glycerol” value?
**A.** 16.7 % w/w

**Q.** And the “Solubility in Methanol” value?
**A.** 11.2 % w/w

**Q.** Which results are given for CN1c2c(nc(N)[nH]c2=O)NC[C@@H]1CNc1ccc(C(=O)N[C@@H](CCC(=O)O)C(=O)O)cc1.CNCCO.CNCCO [L-MTHF di NMAE, 5-Methyl-(6S)-tetrahydrofolic acid di N-methylaminoethanol salt]?
**A.** Solubility in 1-Propanol: 0.1 % w/w; Solubility in DMSO: 3.5 % w/w; Solubility in Ethanol: 0.2 % w/w; Solubility in Glycerol: 16.7 % w/w; Solubility in Methanol: 3.6 % w/w

**Q.** Which results are given for CN(C)CCO.CN1c2c(nc(N)[nH]c2=O)NC[C@@H]1CNc1ccc(C(=O)N[C@@H](CCC(=O)O)C(=O)O)cc1 [L-MTHF mono deanol, 5-Methyl-(6S)-tetrahydrofolic Acid Mono 2-Dimethylaminoethanol Salt]?
**A.** Solubility in 1-Propanol: 0.2 % w/w; Solubility in DMSO: 24.8 % w/w; Solubility in Ethanol: 0.2 % w/w; Solubility in Glycerol: 10.0 % w/w; Solubility in Methanol: 2.5 % w/w
